The structures appear in SMILES notation. “Also recorded” adds a separate entry of the source.

The nature of series [1]: Pharmacokinetics: LSD plasma levels by UHPLC-MS/MS. It counts as in vivo. Conditions: both sexes, human, single oral dose 20 μg LSD, read-out: mean (SD) plasma LSD concentration. The method, then: (§1) Twenty-four healthy participants (12 male, 12 female) participated in a randomized, double-blind, placebo-controlled, within-subject study in which they received single oral doses of 20 μg LSD (hydrate) and placebo on 4 separate test days. A minimum washout of 5 days proceeded in between to avoid carry-over effects. Treatment orders were randomly assigned to participants according to a balanced block design. LSD was formulated as a solution of 25 μg LSD base in 1 ml 96% ethanol according to GMP and administered orally. LSD doses (0.8 ml for 20 μg LSD) were supplemented with an ethanol solution up to a total volume 1 ml and administered with a syringe under the tongue. Placebo consisted of a 1 ml ethanol solution only. Treatments were administered at 10 AM.
At 1.5 and 5 hours post treatment, participants conducted a Cold Pressor Test (further described below). […] Vital signs were recorded at baseline, every 30 minutes during the first three hours after dosing, and at every hour thereafter. […]
Blood samples were centrifuged, and plasma was frozen at −20° C. until analysis for pharmacokinetic assessments. LSD plasma levels were analysed by ultra-high-performance liquid chromatography tandem mass spectrometry (UHPLC-MS/MS) as previously described previously. PK Samples with a LSD concentration below […] were re-analysed by a different extraction procedure. […]

The subject of series [2] is healthy participants. Nature of the series: Cold Pressor Test (CPT), placebo-controlled trial. Conditions: single oral dose 20 μg LSD vs placebo, 1.5 and 5 hours post treatment. It is filed as in vivo, human. As to the method:
as §1
(§2) At 1.5 and 5 hours post treatment, participants conducted a Cold Pressor Test (further described below). The Brief Symptom Inventory and the Clinician Administered Dissociation State Scale (CADSS) were administered prior to treatment administration (baseline) and at the end of a test day, i.e. at 6 hours post dosing. Vital signs were recorded at baseline, every 30 minutes during the first three hours after dosing, and at every hour thereafter. Blood samples were collected at every hour. Participants resided in a secluded room that contained a bed, table and chairs. Standardized lunches were provided around 12 AM.
The CPT was used to induce a painful sensation according to previously validated procedure (Smeets et al. Psychoneuroend. 2012, 37, 1998-2008). The CPT is the most commonly used test to induce conditioned pain modulation and to evaluate analgesic properties such as pain tolerance in healthy subjects (see, for instance, Okkerse et al. Br J Clin Pharmacol. 2017, 83(5), 976-990; Oaks et al. Discov Med. 2018, 26(144), 197-206). […]
A water tank was filled with water that was cooled to 3° C. […] Dependent measures of the CPT included pain tolerance (sec) and subjective ratings of painfulness, unpleasantness and stress as assessed 10 cm visual analogue scales. Water temperature at onset and completion of the CPT were assessed as control measure.
Analyses were carried out by means of the SPSS 25 program series to investigate whether the effects of LSD doses differed from those of placebo. CPT parameters and baseline adjusted parameters of vital signs were analysed using a three factor ANOVA to assess main effects of Treatment, Time after treatment and Participant as well as the interaction Treatment×Time after treatment. […]

Series [3] has as its system healthy participants. Description: Vital signs (heart rate, blood pressure). It is filed as in vivo, human. Conditions: single oral dose 20 μg LSD vs placebo; data not shown. The method, then:
as §1, §2
Heart rate (bpm) and blood pressure (mmHg) were repeatedly assessed using an Omron M6 (HEM-7321-E, Omron Healthcare Europe By) device.
Analyses were carried out by means of the SPSS 25 program series to investigate whether the effects of LSD doses differed from those of placebo. CPT parameters and baseline adjusted parameters of vital signs were analysed using a three factor ANOVA to assess main effects of Treatment, Time after treatment and Participant as well as the interaction Treatment×Time after treatment. Mean contrast (LSD dose versus placebo) tests were conducted for measuring the significance of individual dose effects, relative to placebo. […]

`CCN(CC)C(=O)[C@@H]1C=C2c3cccc4[nH]cc(c34)C[C@H]2N(C)C1` [LSD, (D)-lysergic acid diethylamide]: the concentration at 1.5 h in series [1] (1.5 hours after administration) turned out to be 0.482 ng/mL. The concentration at 6 h in series [1] (6 hours post treatment) worked out at 0.223 ng/mL. For the same compound, the “stress during the CPT (10 cm visual analogue scale)” value in the series with healthy participants [2] was “did not lead to a significant change; also recorded: not affected”. For the same compound, in the series with healthy participants [2] (p=0.006), the “pain tolerance during the CPT” value is on record as “significant increase; also recorded: significantly increased”. Besides, the “unpleasantness during the CPT (10 cm visual analogue scale)” value with healthy participants [2] (p=0.008) is recorded as “significant decrease; also recorded: decreased”. Besides, the “painfulness during the CPT (10 cm visual analogue scale)” value in the series with healthy participants [2] (p=0.012) is reported as “significant decrease; also recorded: decreased”. For the same compound, in the series with healthy participants [3], the diastolic blood pressure result is given as “slightly increased”, the heart rate entry is listed as “not affected” and the systolic blood pressure result is recorded as “slightly increased”.
